The structures appear in SMILES notation.

The target of the test is T1, human NaV1.6 (hNaV1.6) (Homo sapiens, UniProt Q9UQD0).
T1 construct: expressed in transfected cells; host or cells: HEK-293
T1 sequence (Q9UQD0 whole entry): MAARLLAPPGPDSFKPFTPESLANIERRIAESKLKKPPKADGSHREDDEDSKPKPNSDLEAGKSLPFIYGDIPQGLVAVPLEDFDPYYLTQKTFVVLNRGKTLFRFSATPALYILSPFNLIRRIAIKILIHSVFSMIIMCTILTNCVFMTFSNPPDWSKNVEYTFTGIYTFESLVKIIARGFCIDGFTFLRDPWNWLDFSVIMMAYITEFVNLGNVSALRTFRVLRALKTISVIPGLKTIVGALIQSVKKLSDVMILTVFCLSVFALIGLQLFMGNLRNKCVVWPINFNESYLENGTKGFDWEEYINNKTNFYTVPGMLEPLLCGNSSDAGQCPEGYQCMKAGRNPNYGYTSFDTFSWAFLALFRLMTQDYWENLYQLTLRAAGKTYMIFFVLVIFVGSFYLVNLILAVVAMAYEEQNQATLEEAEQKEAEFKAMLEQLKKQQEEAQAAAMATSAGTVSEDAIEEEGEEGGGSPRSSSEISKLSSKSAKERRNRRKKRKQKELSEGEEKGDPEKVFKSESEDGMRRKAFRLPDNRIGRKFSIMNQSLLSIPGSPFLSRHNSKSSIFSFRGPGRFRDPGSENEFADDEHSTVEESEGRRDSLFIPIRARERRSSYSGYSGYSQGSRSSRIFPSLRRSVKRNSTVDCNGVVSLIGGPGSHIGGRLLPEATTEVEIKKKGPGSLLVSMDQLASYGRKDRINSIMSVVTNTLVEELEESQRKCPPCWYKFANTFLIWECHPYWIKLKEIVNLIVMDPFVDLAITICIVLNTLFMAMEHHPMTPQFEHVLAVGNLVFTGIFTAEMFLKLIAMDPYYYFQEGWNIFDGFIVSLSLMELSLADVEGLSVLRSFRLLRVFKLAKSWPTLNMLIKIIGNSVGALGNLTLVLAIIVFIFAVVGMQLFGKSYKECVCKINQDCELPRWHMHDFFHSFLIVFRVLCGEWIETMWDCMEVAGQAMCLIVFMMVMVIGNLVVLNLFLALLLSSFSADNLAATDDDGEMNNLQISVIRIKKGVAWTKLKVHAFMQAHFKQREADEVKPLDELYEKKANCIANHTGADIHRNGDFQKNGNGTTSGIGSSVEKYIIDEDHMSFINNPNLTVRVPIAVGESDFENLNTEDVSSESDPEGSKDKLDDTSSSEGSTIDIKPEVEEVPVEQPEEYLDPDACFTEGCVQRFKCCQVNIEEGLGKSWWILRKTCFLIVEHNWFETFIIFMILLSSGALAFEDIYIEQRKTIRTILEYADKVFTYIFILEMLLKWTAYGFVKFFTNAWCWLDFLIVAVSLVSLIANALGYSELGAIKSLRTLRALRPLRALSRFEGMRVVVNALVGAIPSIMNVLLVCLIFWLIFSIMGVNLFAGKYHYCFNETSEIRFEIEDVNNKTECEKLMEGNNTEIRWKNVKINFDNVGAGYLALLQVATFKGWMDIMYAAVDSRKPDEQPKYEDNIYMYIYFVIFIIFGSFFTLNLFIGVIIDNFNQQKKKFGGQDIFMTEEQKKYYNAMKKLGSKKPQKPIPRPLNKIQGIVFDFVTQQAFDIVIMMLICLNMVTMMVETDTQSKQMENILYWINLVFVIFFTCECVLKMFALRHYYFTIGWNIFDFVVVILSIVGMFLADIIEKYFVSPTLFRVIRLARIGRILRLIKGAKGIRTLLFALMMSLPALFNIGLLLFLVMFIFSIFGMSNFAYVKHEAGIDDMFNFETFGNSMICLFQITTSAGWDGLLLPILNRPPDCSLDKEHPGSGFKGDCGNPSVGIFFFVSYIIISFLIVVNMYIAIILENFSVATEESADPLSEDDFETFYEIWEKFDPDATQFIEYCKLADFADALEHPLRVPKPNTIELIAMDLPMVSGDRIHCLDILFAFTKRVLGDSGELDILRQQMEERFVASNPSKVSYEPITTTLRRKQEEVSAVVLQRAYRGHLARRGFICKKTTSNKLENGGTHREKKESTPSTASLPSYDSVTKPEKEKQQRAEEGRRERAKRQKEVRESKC
Put plainly: Modulation of late sodium current (INaL) at hNaV1.6, PatchXpress electrophysiology. The format is cell-based. The conditions noted are these: HEK293, HEK-293 cells expressing recombinant human NaV 1.6, late current evoked by 300 nM ATX-II, read-out: NaV 1.6 Assay Data (percent inhibition of INaL at hNaV1.6). The method, then:
Functional characterization of exemplary compounds to modulate INaL expressed by the NaV1.6 voltage-gated sodium channel was accomplished using the PatchXpress™ high throughput electrophysiology platform (Molecular Devices, Sunnyvale, CA). HEK-293 cells expressing recombinant, human NaV1.6 (hNaV1.6) were grown in DMEM/high-glucose Dulbecco's modified, 10% FBS, 2 mM sodium pyruvate, 10 mM HEPES and 400 μg/mL G418. Cells were grown to 50%-80% confluency prior to harvesting. Trypsinized cells were washed, allowed to recover for 1 hour and then resuspended in extracellular recording solution at a concentration of 1×10^6 cells/ml. The onboard liquid handling facility of the PatchXpress was used for dispensing cells and applying test compounds. NaV late currents were evoked by the application of 300 nM ATX-II. INaL was evoked by depolarizing pulses to 0 mV for 200 ms from a non-inactivating holding potential (e.g., −120 mV) at a frequency of 0.1 Hz. INaL amplitude and stability were determined by analyzing the mean current amplitude over the final 20 ms of the test pulse. Following steady state block with exemplary compounds (e.g., as described herein), a Na+ free solution containing an impermeant cation (e.g., Choline or NDMG) was added to confirm the identity of the sodium current. Percent steady-state inhibition of INaL was calculated as: […], where INaL_compound and INaL_control represent INaL recorded in the presence or absence of compound, respectively.
Results from this assay relating to percent inhibition of INaL at hNaV1.6 (measured using a procedure similar to described above but using HEK-293 cells expressing recombinant, human NaV 1.6 (h NaV 1.6) at 1 μM are summarized in Table 1 below. In this table, “A” indicates inhibition of less than 30%; “B” indicates inhibition of between about 30% to about 70%; and “C” indicates inhibition of greater than 70%. “N/A” indicates not available.
Usually inhibition stands for the change of the read-out against control, counted positive when it falls. As to `COC1(c2nnc3cnc(-c4cnc(O[C@@H](C)C(F)(F)F)c(F)c4)cn23)CC1` [Compound II-3, (S)-6-(5-fluoro-6-((1,1,1-trifluoropropan-2-yl)oxy)pyridin-3-yl)-3-(1-methoxycyclopropyl)-[1,2,4]triazolo[4,3-a]pyrazine], the inhibition at 1 µM was 30 to 70%. Take `COC(C)(C)c1nnc2cnc(-c3cnc(OCC(F)(F)F)c(F)c3)cn12` [Compound II-4, 6-(5-fluoro-6-(2,2,2-trifluoroethoxy)pyridin-3-yl)-3-(2-methoxypropan-2-yl)-[1,2,4]triazolo[4,3-a]pyrazine]: the inhibition at 1 µM is less than 30%. Then `COC(C)(C)c1nnc2cnc(-c3ccc(OCC(F)(F)F)nc3)cn12` [Compound II-5, 3-(2-methoxypropan-2-yl)-6-(6-(2,2,2-trifluoroethoxy)pyridin-3-yl)-[1,2,4]triazolo[4,3-a]pyrazine], with less than 30%. As to `C[C@H](Oc1ccc(-c2cn3c(C(F)(F)Cl)nnc3cn2)cn1)C(F)(F)F` [Compound II-7, (S)-3-(chlorodifluoromethyl)-6-(6-((1,1,1-trifluoropropan-2-yl)oxy)pyridin-3-yl)-[1,2,4]triazolo[4,3-a]pyrazine], the inhibition at 1 µM was in the range of 30 to 70%. Then `COC(C)(C)c1nnc2cnc(-c3cnc(O[C@H](C)C(F)(F)F)c(F)c3)cn12` [Compound II-8, (R)-6-(5-fluoro-6-((1,1,1-trifluoropropan-2-yl)oxy)pyridin-3-yl)-3-(2-methoxypropan-2-yl)-[1,2,4]triazolo[4,3-a]pyrazine], with 30 to 70%. Consider `COC(C)(C)c1nnc2cnc(-c3cnc(O[C@@H](C)C(F)(F)F)c(F)c3)cn12` [Compound II-9, (S)-6-(5-fluoro-6-((1,1,1-trifluoropropan-2-yl)oxy)pyridin-3-yl)-3-(2-methoxypropan-2-yl)-[1,2,4]triazolo[4,3-a]pyrazine], for which the inhibition at 1 µM fell in the range of 30 to 70%. With `COC(C)(C)c1nnc2cnc(-c3cnc(OC(C)(C)C(F)(F)F)c(F)c3)cn12` [Compound II-10, 6-[5-fluoro-6-(2,2,2-trifluoro-1,1-dimethyl-ethoxy)-3-pyridyl]-3-(1-methoxy-1-methyl-ethyl)-[1,2,4]triazolo[4,3-a]pyrazine] the figure was greater than 70%; with `CCOC(C)(C)c1nnc2cnc(-c3cnc(OC(C)(C)C(F)(F)F)c(F)c3)cn12` [Compound II-11, 3-(2-ethoxypropan-2-yl)-6-(5-fluoro-6-((1,1,1-trifluoro-2-methylpropan-2-yl)oxy)pyridin-3-yl)-[1,2,4]triazolo[4,3-a]pyrazine], 30 to 70%; with `COC(C)(C)c1nnc2cnc(-c3cnc(OC4(C(F)(F)F)CCC4)c(F)c3)cn12` [Compound II-12, 6-(5-fluoro-6-(1-(trifluoromethyl)cyclobutoxy)pyridin-3-yl)-3-(2-methoxypropan-2-yl)-[1,2,4]triazolo[4,3-a]pyrazine], greater than 70%. `COC(C)(C)c1nnc2cnc(-c3ccc(OC4(C(F)(F)F)CCC4)nc3)cn12` [Compound II-13, 3-(1-methoxy-1-methyl-ethyl)-6-[6-[1-(trifluoromethyl)cyclobutoxy]-3-pyridyl]-[1,2,4]triazolo[4,3-a]pyrazine]: the inhibition at 1 µM was in the range of 30 to 70%. Then `COC(C)(C)c1nnc2cnc(-c3ccc(OC(C)(C)C(F)(F)F)nc3)cn12` [Compound II-14, 3-(1-methoxy-1-methyl-ethyl)-6-[6-(2,2,2-trifluoro-1,1-dimethyl-ethoxy)-3-pyridyl]-[1,2,4]triazolo[4,3-a]pyrazine], with 30 to 70%; and `CCOC(C)(C)c1nnc2cnc(-c3ccc(OC(C)(C)C(F)(F)F)nc3)cn12` [Compound II-15, 3-(2-ethoxypropan-2-yl)-6-(6-((1,1,1-trifluoro-2-methylpropan-2-yl)oxy)pyridin-3-yl)-[1,2,4]triazolo[4,3-a]pyrazine], with 30 to 70%. Then `FC(F)(F)Oc1ccc(-c2cn3c(C(F)(F)F)nnc3cn2)c(C2CC2)c1` [Compound III-1, 6-[2-cyclopropyl-4-(trifluoromethoxy)phenyl]-3-(trifluoromethyl)-[1,2,4]triazolo[4,3-a]pyrazine], with greater than 70%; and `CCOC(F)(F)c1nnc2cnc(-c3ccc(OC(F)(F)F)cc3C3CC3)cn12` [Compound III-2, 6-[2-cyclopropyl-4-(trifluoromethoxy)phenyl]-3-[ethoxy(difluoro)methyl]-[1,2,4]triazolo[4,3-a]pyrazine], with greater than 70%. With `CCOC(F)(F)c1nnc2cnc(-c3ccc(COCC(F)(F)F)cc3C)cn12` [Compound III-5, 3-[ethoxy(difluoro)methyl]-6-[2-methyl-4-(2,2,2-trifluoroethoxymethyl)phenyl]-[1,2,4]triazolo[4,3-a]pyrazine] the figure was 30 to 70%; with `COC(F)(F)c1nnc2cnc(-c3ccc(COCC(F)(F)F)cc3C)cn12` [Compound III-6, 3-[difluoro(methoxy)methyl]-6-[2-methyl-4-(2,2,2-trifluoroethoxymethyl)phenyl]-[1,2,4]triazolo[4,3-a]pyrazine], 30 to 70%. With `CCOC(F)(F)c1nnc2cnc(-c3ccc(COCC(F)(F)F)cc3)cn12` [Compound III-11, 3-(ethoxydifluoromethyl)-6-(4-((2,2,2-trifluoroethoxy)methyl)phenyl)-[1,2,4]triazolo[4,3-a]pyrazine], the inhibition at 1 µM was 30 to 70%. On to `COCC(F)(F)Oc1ccc(-c2cn3c(C(F)(F)F)nnc3cn2)cc1` [Compound III-12, 6-(4-(1,1-difluoro-2-methoxyethoxy)phenyl)-3-(trifluoromethyl)-[1,2,4]triazolo[4,3-a]pyrazine], for which the inhibition at 1 µM lay within 30 to 70%.

For `C[C@@H](Oc1ccc(-c2cn3c(C(F)F)nnc3cn2)cn1)C(F)(F)F` [Compound III-13, (R)-3-(difluoromethyl)-6-(6-((1,1,1-trifluoropropan-2-yl)oxy)pyridin-3-yl)-[1,2,4]triazolo[4,3-a]pyrazine], the inhibition at 1 µM is greater than 70%. Turning to `FC(F)(F)c1nnc2cnc(-c3ccc(O[C@@H](C4CC4)C(F)(F)F)nc3)cn12` [Compound III-15, (S)-6-(6-(1-cyclopropyl-2,2,2-trifluoroethoxy)pyridin-3-yl)-3-(trifluoromethyl)-[1,2,4]triazolo[4,3-a]pyrazine], the inhibition at 1 µM was greater than 70%. Then `C[C@H](Oc1ccc(-c2cn3c(C(F)F)nnc3cn2)cn1)C(F)(F)F` [Compound III-16, (S)-3-(difluoromethyl)-6-(6-((1,1,1-trifluoropropan-2-yl)oxy)pyridin-3-yl)-[1,2,4]triazolo[4,3-a]pyrazine], with greater than 70%.

The record behind these values is US12145939B2, “Substituted [1,2,4]triazolo[4,3-a]pyrazines as ion channel modulators” (PRAXIS PRECISION MEDICINES, INC., priority 2019, dated 2024).
